Assay results as given in US6001815A, “Depsipeptides containing N-substituted glycine residue” (Nisshin Flour Milling Co., Ltd., priority 1997, dated 1999).
Where a SMILES comes first, the peptide text is derived from it. [ ]: non-standard residue; d: D form. The star is where a group is joined. Fmoc = O=C(OCC1c2ccccc2-c2ccccc21)*; X1 = CCCCCCCCCCCC(CC(=O)O)O*; NBuGly = CCCCNCC(=O)O

Test system: apolipoprotein E production in Hep G2 cells
Experiment: Productivity of apolipoprotein E in Hep G2 cells, determined by enzyme immunoassay
Type: cell-based, human
Conditions: Hep G2 culture supernatant, methanol control defined as 100
Method: It will be shown below that the depsipeptides of the invention may influence upon the productivity of apolipoprotein E in Hep G2 cells, together with the test procedure as used.
First, Hep G2 cells of 1×10^5 cells were suspended in Dulbecco's modified Eagle medium (manufactured by Nissui Seiyaku Co., Ltd.; hereinafter referred to as "D-MEM medium") containing 10% fetal bovine serum and 1 ml each of the suspension was poured into a 24-well tissue culture plate. The cells were cultivated at 37° C. under atmosphere of a mixed gas composed of 5% carbon dioxide and 95% air. […]
It was again washed three times with 300 μl of PBS, 50 μl of the above sample solution (the medium for Hep G2 cells) was added and the mixture was allowed to stand at room temperature for 2 hours. […] The reaction was quenched by the addition of 100 μl of 2N sulfuric acid and absorbance was measured at 490 nm using absorbance at 650 nm as a control. An amount of apolipoprotein E in the present depsipeptide was determined upon the calibration curve drawn up when a commercially available apolipoprotein E (Chemicon Co., Ltd., U.S.A.) was used as a standard.
In the Test Example, the same procedure as described above was carried out except that methanol alone was added instead of the methanolic solution of the depsipeptide of this invention and an apolipoprotein E amount was measured as a control. […]

SMILES: CCCCCCCCCCCC(CC(=O)O)OC(=O)CN(CCCC)C(=O)CN(CCCC)C(=O)[C@H](CC(=O)O)NC(=O)[C@@H](NC(=O)OCC1c2ccccc2-c2ccccc21)C(C)C (some centres unmarked) [Compound 2] (Fmoc-VD[NBuGly][NBuGly]-X1)
- Relative amount of apolipoprotein E (%) (Conc. 1 μM): 256%
- Relative amount of apolipoprotein E (%) (Conc. 5 μM): 389%
